The numbers were not newly measured in US20060083768A1, “Method of thickening a coating using a drug” (ATRIUM MEDICAL CORPORATION, priority 2004, published 2006), which cites them from elsewhere.

For this data set, the system named is Porcine Coronary Model. As to conditions: stents coated with agent solubilized in eicosapentaenoic acid oil vs eicosapentaenoic acid oil coated stents.

For the compound `C=C1[C@@H](C)[C@H]2[C@H](Cc3ccccc3)NC(=O)[C@]23[C@H](OC(C)=O)/C=C/[C@@](C)(O)C(=O)[C@@H](C)C/C=C/[C@H]3[C@@H]1O` [cytochalasin D], the “less area stenosis compared to the control group” value is 38% and the “less intimal hyperplasia compared to the control group” value is recorded as 39%.
